For data set [1] the following is noted: cited from earlier work.
Data set [2] is described as follows: Storage stability of the crystal form at 40° C. and 75% RH for six months, XRPD comparison (FIG. 5). Type of data set: physicochemical. The note with it: stored at 40° C. and 75% RH for six months. On the procedure:
FIG. 5 is an X-ray powder diffraction (XRPD) comparison diagram of crystal form A of inositol nicotinate provided by the present invention stored for half a year at 40° C. and under the condition of 75% of relative humidity.
XRPD analysis: It was detected at room temperature using a Bruker D8 advance type diffractometer from German Brook Instrument Co., Ltd by Cu-Kα rays (λ=1.5418 Å), with a 2θ angle scanning from 3° to 40°, and the scanning speed was 0.2°/second.
The crystal form A of inositol nicotinate obtained in the above examples was stored under conditions of 40° C. and 75% RH for six months.

As for `O=C(O[C@H]1[C@H](OC(=O)c2cccnc2)[C@@H](OC(=O)c2cccnc2)[C@H](OC(=O)c2cccnc2)[C@@H](OC(=O)c2cccnc2)[C@H]1OC(=O)c1cccnc1)c1cccnc1` [Inositol nicotinate, cis-1,2,3,5-trans-4,6-cyclohexanehexol niacinate], the solubility in chloroform result in data set [1] (chloroform) is “very slightly soluble”. Also, the solubility in ethanol result in data set [1] (ethanol and other organic solvents) is “insoluble”. For the same molecule, the “solubility in dimethyl sulfoxide” value in data set [1] (hot dimethylformamide or dimethyl sulfoxide) is “only soluble”. In addition, the “solubility in hot dimethylformamide” value in data set [1] (hot dimethylformamide) is “only soluble”. Also, in data set [1] (water), the solubility in water result is reported as “insoluble”.

For `O=C(O[C@H]1[C@H](OC(=O)c2cccnc2)[C@@H](OC(=O)c2cccnc2)[C@H](OC(=O)c2cccnc2)[C@@H](OC(=O)c2cccnc2)[C@H]1OC(=O)c1cccnc1)c1cccnc1` [crystal form A of inositol nicotinate, cis-1,2,3,5-trans-4,6-cyclohexanehexol niacinate], the “crystal form after storage (physical stability, XRPD comparison)” value in data set [2] is given as “has not changed”.

The record behind these values is patent US20180273480A1, “INOSITOL NICOTINATE CRYSTALLINE FORM A AND PREPARATION METHOD THEREFOR” (WEIFANG SHENGYU PHARMA CO., LTD., priority 2015, published 2018).
